Assay results from patent publication US20260000082A1, “STABILIZED LIQUID HERBICIDE FORMULATION OF HIGH-LOAD PYRASULFOTOLE” (ADAMA AGAN LTD., priority 2022, published 2026).

Assay: Solubility of Pyrasulfotole in solvents with and without organic amine at room temp (24° C.)
Format: physicochemical
Details: for increase of solubility: 24° C.
Description: Some of the results are tabulated as follows:
Solubility of Pyrasulfotole in Dimethyl sulfoxide (DMSO) and in a mixture of Pyrasulfotole with DMSO and amine at room temp (24° C.) was tested.
Solubility of Pyrasulfotole in Cyclohexanone and in a mixture of Pyrasulfotole with Cyclohexanone and amine at room temp (24° C.) was tested.
Solubility of Pyrasulfotole in Propylene carbonate and in a mixture of Pyrasulfotole with Propylene carbonate and amine at room temp (24° C.) was tested.

Cc1nn(C)c(O)c1C(=O)c1ccc(C(F)(F)F)cc1S(C)(=O)=O [Pyrasulfotole]
increase of solubility (Cyclohexanone/Genamin C-50 66/34 versus Cyclohexanone alone): about 400%
increase of solubility (DMSO/GENAMIN C-50 66/34 versus DMSO alone): about 26%
increase of solubility (Propylene carbonate/Genamin C-50 70/30 versus Propylene carbonate alone): about 620%
Solubility (%) (solvent Cyclohexanone, rate 100, room temp (24° C.)): 8.24%
Solubility (%) (solvent Cyclohexanone/Genamin C-50, rate 66/34, room temp (24° C.)): 32.99%
Solubility (%) (solvent DMSO, rate 100, room temp (24° C.)): 26.98%
Solubility (%) (solvent DMSO/GENAMIN C-50, rate 66/34, room temp (24° C.)): 39.24%
Solubility (%) (solvent Propylene carbonate, rate 100, room temp (24° C.)): 4.59%
Solubility (%) (solvent Propylene carbonate/Genamin C-50, rate 70/30, room temp (24° C.)): 28.57%
